Results taken from patent US20100022562A1, “Use of Plant Growth Regulators to Reduce Abscisic Acid Related Plant Leaf Yellowing” (priority 2008, published 2010).

Assays:
Format in all cases: in vivo
Pansy plants [1] = assay: Plant elongation after gibberellin treatment; settings: 0.1 mg or 1 mg per plant; Delta Premium Pure White
Description: GA4/7 reduced the number of yellow leaves more than GA3.

Pansy plants [2] = assay: Pansy yellow leaf number (leaf yellowing)
Procedure: (§1) All studies were conducted in the greenhouse at the research farm of Valent BioSciences Corporation (Long Grove, Ill.). Pansy plants were obtained either from local retailers as mature plants, or plugs from wholesale nurseries. Plugs of Pansy plants were transplanted into an 18-cell flat filled with Promix BX (available from Premier Horticulture Inc. Quakertown, Pa.) and grown for about 30 days prior to treatment. During growing periods, plants received daily irrigation and weekly fertilizer (1 g/L all purpose fertilizer 20-20-20, The Scotts Company, Marysville, Ohio).
(§2) Uniform plants were selected for the study. Prior to chemical treatment, plants were saturated with water and then drained for about two hours. A total of 20 mL chemical solution, which is equivalent to about 10% of the cell volume, was applied to each plant with 3 mL solution foliar applied to canopy and 17 mL solution drench applied to root zone. Unless specified, watering of plants was stopped after chemical treatment.
After chemical treatment, plants were arranged in a randomized complete block experimental design. The plants were rated daily for the extent of wilting on a scale from 1 (no wilting) to 4 (complete wilting) to generated a sales index rating. A rating of 2.5 was the point at which a plant was determined to be unmarketable and the previous day was recorded as the shelf life of that plant in days. […] Leaf transpiration rate was measured after treatment using a LI-1600 Steady State Porometer (LI-Cor, Lincoln, Nebr.). The transpiration rate of each treatment was calculated as the percentage of that of control at each day to reduce day-to-day variation caused by changes of environmental condition such as light intensity, humidity, and temperature.

Pansy plants [3] = assay: Pansy shelf life under drought (daily wilting rating, sales index)
Procedure: as §1, §2
(§3) After chemical treatment, plants were arranged in a randomized complete block experimental design. The plants were rated daily for the extent of wilting on a scale from 1 (no wilting) to 4 (complete wilting) to generated a sales index rating. A rating of 2.5 was the point at which a plant was determined to be unmarketable and the previous day was recorded as the shelf life of that plant in days. Yellow leaf number was counted at 3 days after chemical treatment. Leaf transpiration rate was measured after treatment using a LI-1600 Steady State Porometer (LI-Cor, Lincoln, Nebr.). The transpiration rate of each treatment was calculated as the percentage of that of control at each day to reduce day-to-day variation caused by changes of environmental condition such as light intensity, humidity, and temperature.

Pansy plants [4] = assay: Pansy leaf transpiration rate (LI-1600 Steady State Porometer); settings: for Transpiration rate (% of control): Matrix Premium Rose, Table 16; for Transpiration inhibition: sufficient water
Procedure: as §2, §3

C=C1C[C@]23C[C@@]1(O)CC[C@H]2[C@@]12C=C[C@H](O)[C@@](C)(C(=O)O1)[C@H]2[C@@H]3C(=O)O [GA3, gibberellin A3]
Effect on plant elongation (Pansy plants [1]): no apparent effect | Yellow leaf number (Pansy plants [2]; 0.1 mg, Delta Premium Pure White, 3 days after treatment, Table 24): 1.3 | Yellow leaf number (Pansy plants [2]; 0.1 mg, Delta Premium Pure White, 7 days after treatment, Table 24): 3.8 | Yellow leaf number (Pansy plants [2]; 1 mg, Delta Premium Pure White, 3 days after treatment, Table 24): 1.2 | Yellow leaf number (Pansy plants [2]; 1 mg, Delta Premium Pure White, 7 days after treatment, Table 24): 3.7 | Shelf life (Pansy plants [3]; 0.1 mg, Delta Premium Pure White, Table 24): 4.3 days | Shelf life (Pansy plants [3]; 1 mg, Delta Premium Pure White, Table 24): 4.0 days

C#CC1(C)CC(=O)C=C(C)C1(O)/C=C/C(C)=C\C(=O)OC (stereo not drawn) [PBI-429, 8′ acetylene-ABA methyl ester]
Yellow leaf number (Pansy plants [2]; 0.1 mg, Matrix Orange, drought, 3 d after treatment, Table 1): 3 | Yellow leaf number (Pansy plants [2]; 0.3 mg, Clear Sky Yellow, drought, 3 d after treatment, Table 8): 2.8 | Yellow leaf number (Pansy plants [2]; 0.3 mg, Crown Azure Blue, drought, 3 d after treatment, Table 9): 4.8 | Yellow leaf number (Pansy plants [2]; 0.3 mg, Matrix Orange, drought, 3 d after treatment, Table 1): 5 | Yellow leaf number (Pansy plants [2]; 0.3 mg, Matrix Orange, drought, 3 d after treatment, Table 2): 9.0 | Yellow leaf number (Pansy plants [2]; 0.3 mg, Matrix Yellow, drought, 3 d after treatment, Table 7): 9.7 | Yellow leaf number (Pansy plants [2]; 1 mg, Matrix Orange, drought, 3 d after treatment, Table 1): 7 | Yellow leaf number (Pansy plants [2]; 3 mg PBI-429, no water, Whispers White, 3 d after treatment, Table 15): 23.3 | Yellow leaf number (Pansy plants [2]; 3 mg, Clear Sky Yellow, drought, 3 d after treatment, Table 8): 4.8 | Yellow leaf number (Pansy plants [2]; 3 mg, Crown Azure Blue, drought, 3 d after treatment, Table 9): 7.7 | Yellow leaf number (Pansy plants [2]; 3 mg, Matrix Orange, drought, 3 d after treatment, Table 1): 10 | Yellow leaf number (Pansy plants [2]; 3 mg, Matrix Yellow, drought, 3 d after treatment, Table 7): 13.2 | Shelf life (Pansy plants [3]; 0.1 mg, Matrix Orange, drought, Table 1): 5.5 days | Shelf life (Pansy plants [3]; 0.3 mg PBI-429, no water, Whispers White, Table 15): 3.8 days | Shelf life (Pansy plants [3]; 0.3 mg, Clear Sky Yellow, drought, Table 8): 6.5 days | Shelf life (Pansy plants [3]; 0.3 mg, Crown Azure Blue, drought, Table 9): 4.5 days | Shelf life (Pansy plants [3]; 0.3 mg, Matrix Orange, drought, Table 1): 5.8 days | Shelf life (Pansy plants [3]; 0.3 mg, Matrix Orange, drought, Table 2): 5.8 days | Shelf life (Pansy plants [3]; 0.3 mg, Matrix Yellow, drought, Table 7): 7.5 days | Shelf life (Pansy plants [3]; 1 mg, Matrix Orange, drought, Table 1): 7.0 days | Shelf life (Pansy plants [3]; 3 mg PBI-429, no water, Whispers White, Table 15): 7.2 days | Shelf life (Pansy plants [3]; 3 mg, Clear Sky Yellow, drought, Table 8): 8.7 days | Shelf life (Pansy plants [3]; 3 mg, Crown Azure Blue, drought, Table 9): 7.0 days | Shelf life (Pansy plants [3]; 3 mg, Matrix Orange, drought, Table 1): 8.3 days | Shelf life (Pansy plants [3]; 3 mg, Matrix Orange, drought, Table 2): 9.5 days | Shelf life (Pansy plants [3]; 3 mg, Matrix Yellow, drought, Table 7): 8.8 days | Transpiration rate (% of control) (Pansy plants [4]; 0.3 mg PBI-429, no water, day 1 after treatment): 34 % of control | Transpiration rate (% of control) (Pansy plants [4]; 0.3 mg PBI-429, no water, day 2 after treatment): 35 % of control | Transpiration rate (% of control) (Pansy plants [4]; 0.3 mg PBI-429, no water, day 3 after treatment): 26 % of control | Transpiration inhibition (Pansy plants [4]; 0.3 mg PBI-429, through 3 days after treatment): greater than 50% | Transpiration rate (% of control) (Pansy plants [4]; 0.3 mg PBI-429, watered, day 1 after treatment): 32 % of control | Transpiration rate (% of control) (Pansy plants [4]; 0.3 mg PBI-429, watered, day 2 after treatment): 33 % of control | Transpiration rate (% of control) (Pansy plants [4]; 0.3 mg PBI-429, watered, day 3 after treatment): 44 % of control | Transpiration rate (% of control) (Pansy plants [4]; 0.3 mg PBI-429, watered, day 4 after treatment): 68 % of control | Transpiration rate (% of control) (Pansy plants [4]; 0.3 mg PBI-429, watered, day 5 after treatment): 74 % of control | Transpiration rate (% of control) (Pansy plants [4]; 0.3 mg PBI-429, watered, day 7 after treatment): 81 % of control | Transpiration rate (% of control) (Pansy plants [4]; 0.3 mg PBI-429, watered, day 10 after treatment): 88 % of control | Transpiration rate (% of control) (Pansy plants [4]; 3 mg PBI-429, no water, day 1 after treatment): 23 % of control | Transpiration rate (% of control) (Pansy plants [4]; 3 mg PBI-429, no water, day 2 after treatment): 14 % of control | Transpiration rate (% of control) (Pansy plants [4]; 3 mg PBI-429, no water, day 3 after treatment): 9 % of control | Transpiration rate (% of control) (Pansy plants [4]; 3 mg PBI-429, no water, day 4 after treatment): 10 % of control | Transpiration rate (% of control) (Pansy plants [4]; 3 mg PBI-429, no water, day 5 after treatment): 18 % of control | Transpiration inhibition (Pansy plants [4]; 3 mg PBI-429, through 10 days after treatment): greater than 50% | Transpiration rate (% of control) (Pansy plants [4]; 3 mg PBI-429, watered, day 1 after treatment): 20 % of control | Transpiration rate (% of control) (Pansy plants [4]; 3 mg PBI-429, watered, day 2 after treatment): 15 % of control | Transpiration rate (% of control) (Pansy plants [4]; 3 mg PBI-429, watered, day 3 after treatment): 29 % of control | Transpiration rate (% of control) (Pansy plants [4]; 3 mg PBI-429, watered, day 4 after treatment): 28 % of control | Transpiration rate (% of control) (Pansy plants [4]; 3 mg PBI-429, watered, day 5 after treatment): 32 % of control | Transpiration rate (% of control) (Pansy plants [4]; 3 mg PBI-429, watered, day 7 after treatment): 44 % of control | Transpiration rate (% of control) (Pansy plants [4]; 3 mg PBI-429, watered, day 10 after treatment): 46 % of control
